# Positions of bridges follow the written chain, without caps; N, C: chain ends. Non-standard residues stand in square brackets, D forms with d. Residues, ends and D or L forms follow the SMILES beside them. ξ: configuration not given here. *: point of attachment. Hexanoyl(4ξ-Me) = CCC(C)CCC(=O)*; dOrn = NCCC[C@@H](N)C(=O)O; Orn = NCCC[C@H](N)C(=O)O
# Experiments:
# [1] = Nephrotoxicity in human Kidney organoid assessed as deterioration of renal tubule measured after 48 hrs by bright field imaging analysis; assay type: toxicity, tissue-based; details: dose 100-1000 µM
# [2] = Nephrotoxicity in human Kidney organoid assessed as at 300 uM measured after 48 hrs by bright field imaging analysis; assay type: toxicity, tissue-based
# Staphylococcus aureus [3] = assay: Antibacterial activity against methicillin-resistant Staphylococcus aureus EMRSA-15 assessed as reduction in bacterial growth by microbroth dilution assay; assay type: functional
# Staphylococcus aureus [4] = assay: Antibacterial activity against Staphylococcus aureus ATCC 25923 assessed as reduction in bacterial growth by microbroth dilution assay; assay type: functional
# Enterococcus faecalis = assay: Antibacterial activity against vancomycin resistant Enterococcus faecalis V583 assessed as reduction in bacterial growth by microbroth dilution assay; assay type: functional
# Staphylococcus aureus [5] = assay: Antibacterial activity against methicillin-resistant Staphylococcus aureus […] assessed as reduction in bacterial growth by microbroth dilution assay; assay type: functional
# Staphylococcus aureus [6] = assay: Antibacterial activity against methicillin-resistant Staphylococcus aureus RA120 assessed as reduction in bacterial growth by microbroth dilution assay; assay type: functional
# Staphylococcus aureus [7] = assay: Antibacterial activity against methicillin-resistant Staphylococcus aureus NCTC1044 assessed as reduction in bacterial growth by microbroth dilution assay; assay type: functional
# Acinetobacter baumannii [8] = assay: Antibacterial activity against multidrug resistant Acinetobacter baumannii AB5075 assessed as reduction in bacterial growth by microbroth dilution assay; assay type: functional
# Escherichia coli [9] = assay: Antibacterial activity against multidrug resistant Escherichia coli MS834 harbouring mcr-1 assessed as reduction in bacterial growth by microbroth dilution assay; assay type: functional
# Klebsiella pneumoniae [10] = assay: Antibacterial activity against Klebsiella pneumoniae ATCC 700603 assessed as reduction in bacterial growth by microbroth dilution assay; assay type: functional
# Escherichia coli [11] = assay: Antibacterial activity against Escherichia coli ATCC 25922 assessed as reduction in bacterial growth by microbroth dilution assay; assay type: functional
# Klebsiella pneumoniae [12] = assay: Antibacterial activity against pandrug-resistant Klebsiella pneumoniae MS6671 assessed as reduction in bacterial growth by microbroth dilution assay; assay type: functional
# Pseudomonas aeruginosa = assay: Antibacterial activity against Pseudomonas aeruginosa ATCC 27853 assessed as reduction in bacterial growth by microbroth dilution assay; assay type: functional
# Acinetobacter baumannii [13] = assay: Antibacterial activity against Acinetobacter baumannii ATCC 19606 assessed as reduction in bacterial growth by microbroth dilution assay; assay type: functional
# Klebsiella pneumoniae [14] = assay: Antibacterial activity against Klebsiella pneumoniae ATCC 33495 assessed as reduction in bacterial growth by microbroth dilution assay; assay type: functional
# [15] = Nephrotoxicity in human Kidney organoid assessed as at 100 uM measured after 48 hrs by bright field imaging analysis; assay type: toxicity, tissue-based
Compound,Activity [1],Activity [2],MIC (Staphylococcus aureus [3]) [µg/mL],MIC (Staphylococcus aureus [4]) [µg/mL],MIC (Enterococcus faecalis) [µg/mL],MIC (Staphylococcus aureus [5]) [µg/mL],MIC (Staphylococcus aureus [6]) [µg/mL],MIC (Staphylococcus aureus [7]) [µg/mL],MIC (Acinetobacter baumannii [8]) [µg/mL],MIC (Escherichia coli [9]) [µg/mL],MIC (Klebsiella pneumoniae [10]) [µg/mL],MIC (Escherichia coli [11]) [µg/mL],MIC (Klebsiella pneumoniae [12]) [µg/mL],MIC (Pseudomonas aeruginosa) [µg/mL],MIC (Acinetobacter baumannii [13]) [µg/mL],MIC (Klebsiella pneumoniae [14]) [µg/mL],Activity [15]
POLYMYXIN B [listing 1 of 2 here],Dose-Dependent Effect,Toxic,–,–,–,–,–,–,–,–,–,–,–,–,–,–,–
CC1(C)S[C@@H]2[C@H](NC(=O)[C@H](N)c3ccc(O)cc3)C(=O)N2[C@H]1C(=O)O [AMOXICILLIN],–,–,> 32,0.25,0.5,> 32,> 32,32,–,–,–,–,–,–,–,–,–
CCC(C)CCC(=O)N[C@H](CC(N)=O)C(=O)N[C@H](Cc1ccccc1)C(=O)N[C@H](Cc1c[nH]c2ccccc12)C(=O)N[C@H](CCCN)C(=O)N[C@@H](CCCN)C(=O)NCC(=O)N[C@H](CCCN)C(=O)N[C@@H](Cc1c[nH]c2ccccc12)C(=O)N[C@@H]1C(=O)N[C@@H]([C@@H](C)CC)C(=O)NCC(=O)N[C@@H](CO)C(=O)O[C@@H]1C (some centres undefined),Dose-Dependent Effect,Toxic,> 32,> 32,> 32,> 32,> 32,> 32,16,8,16,4,32,8,16,4,Non-Toxic
CCC(C)CCC(=O)N[C@H](CC(N)=O)C(=O)N[C@H](CCCCN)C(=O)N[C@H](Cc1c[nH]c2ccccc12)C(=O)N[C@H](CCCN)C(=O)N[C@@H](CCCN)C(=O)NCC(=O)N[C@H](CCCN)C(=O)N[C@@H](Cc1c[nH]c2ccccc12)C(=O)N[C@@H]1C(=O)N[C@@H]([C@@H](C)CC)C(=O)NCC(=O)N[C@@H](CO)C(=O)O[C@@H]1C (some centres undefined),–,–,–,> 32,> 32,> 32,–,–,> 32,> 32,> 32,> 32,> 32,16,> 32,> 32,–
Cc1onc(-c2ccccc2)c1C(=O)N[C@@H]1C(=O)N2[C@@H]1SC(C)(C)[C@@H]2C(=O)O [OXACILLIN],–,–,64,–,–,128,64,64,–,–,–,–,–,–,–,–,–
POLYMYXIN B [listing 2 of 2 here],–,–,–,–,–,–,–,–,0.5,4,0.25,0.125,32,1,0.5,0.5,–
CCC(C)CCC(=O)N[C@H](CC(N)=O)C(=O)N[C@@H](Cc1ccccc1)C(=O)N[C@H](Cc1c[nH]c2ccccc12)C(=O)N[C@H](CCCN)C(=O)N[C@@H](CCCN)C(=O)NCC(=O)N[C@H](CCCN)C(=O)N[C@@H](Cc1c[nH]c2ccccc12)C(=O)N[C@@H]1C(=O)N[C@@H]([C@@H](C)CC)C(=O)NCC(=O)N[C@@H](CO)C(=O)O[C@@H]1C (some centres undefined),–,–,–,> 32,> 32,> 32,–,–,> 32,> 32,> 32,> 32,> 32,> 32,> 32,> 32,–
CN[C@H](CC(C)C)C(=O)N[C@H]1C(=O)N[C@@H](CC(N)=O)C(=O)N[C@H]2C(=O)N[C@H]3C(=O)N[C@H](C(=O)N[C@H](C(=O)O)c4cc(O)cc(O)c4-c4cc3ccc4O)[C@H](O)c3ccc(c(Cl)c3)Oc3cc2cc(c3O[C@@H]2O[C@H](CO)[C@@H](O)[C@H](O)[C@H]2O[C@H]2C[C@](C)(N)[C@H](O)[C@H](C)O2)Oc2ccc(cc2Cl)[C@H]1O [VANCOMYCIN],–,–,–,–,32,–,–,–,–,–,–,–,–,–,–,–,–
CCC(C)CCC(=O)N[C@H](CC(N)=O)C(=O)N[C@@H](Cc1ccc(Br)cc1)C(=O)N[C@H](Cc1c[nH]c2ccccc12)C(=O)N[C@H](CCCN)C(=O)N[C@@H](CCCN)C(=O)NCC(=O)N[C@H](CCCN)C(=O)N[C@@H](Cc1c[nH]c2ccccc12)C(=O)N[C@@H]1C(=O)N[C@@H]([C@@H](C)CC)C(=O)NCC(=O)N[C@@H](CO)C(=O)O[C@@H]1C (some centres undefined),–,–,–,> 32,> 32,> 32,–,–,> 32,> 32,> 32,32,> 32,> 32,> 32,> 32,–
CCC(C)CCC(=O)N[C@H](CC(N)=O)C(=O)N[C@H](Cc1c[nH]cn1)C(=O)N[C@H](Cc1c[nH]c2ccccc12)C(=O)N[C@H](CCCN)C(=O)N[C@@H](CCCN)C(=O)NCC(=O)N[C@H](CCCN)C(=O)N[C@@H](Cc1c[nH]c2ccccc12)C(=O)N[C@@H]1C(=O)N[C@@H]([C@@H](C)CC)C(=O)NCC(=O)N[C@@H](CO)C(=O)O[C@@H]1C (some centres undefined),–,–,–,> 32,> 32,> 32,–,–,> 32,> 32,> 32,> 32,> 32,> 32,> 32,> 32,–
COLISTIN,–,–,–,–,–,–,–,–,1,4,0.25,0.125,32,1,0.5,0.25,–
CCC(C)CCC(=O)N[C@H](CC(N)=O)C(=O)N[C@H](Cc1ccc(O)cc1)C(=O)N[C@H](Cc1c[nH]c2ccccc12)C(=O)N[C@H](CCCN)C(=O)N[C@@H](CCCN)C(=O)NCC(=O)N[C@H](CCCN)C(=O)N[C@@H](Cc1c[nH]c2ccccc12)C(=O)N[C@@H]1C(=O)N[C@@H]([C@@H](C)CC)C(=O)NCC(=O)N[C@@H](CO)C(=O)O[C@@H]1C (some centres undefined) ({Hexanoyl(4ξ-Me)}-[dN][dY][dW][dOrn][Orn]G[dOrn]WTIGS; ester 9-C),Dose-Dependent Effect,Toxic,–,> 32,> 32,> 32,–,–,16,4,8,4,16,4,16,2,Non-Toxic
CCC(C)CCC(=O)N[C@H](CC(N)=O)C(=O)N[C@H](Cc1c[nH]c2ccccc12)C(=O)N[C@H](Cc1c[nH]c2ccccc12)C(=O)N[C@H](CCCN)C(=O)N[C@@H](CCCN)C(=O)NCC(=O)N[C@H](CCCN)C(=O)N[C@@H](Cc1c[nH]c2ccccc12)C(=O)N[C@@H]1C(=O)N[C@@H]([C@@H](C)CC)C(=O)NCC(=O)N[C@@H](CO)C(=O)O[C@@H]1C (some centres undefined) ({Hexanoyl(4ξ-Me)}-[dN][dW][dW][dOrn][Orn]G[dOrn]WTIGS; ester 9-C),–,–,–,> 32,> 32,> 32,–,–,32,32,32,32,> 32,32,> 32,16,–
C[C@@H](O)[C@H]1C(=O)N2C(C(=O)O)=C(S[C@@H]3CN[C@H](C(=O)N(C)C)C3)[C@H](C)[C@H]12 [MEROPENEM],–,–,–,–,–,–,–,–,32,0.062,0.062,0.031,32,0.25,0.5,0.062,–
CCC(C)CCC(=O)N[C@H](CC(N)=O)C(=O)N[C@H](C(=O)N[C@H](Cc1c[nH]c2ccccc12)C(=O)N[C@H](CCCN)C(=O)N[C@@H](CCCN)C(=O)NCC(=O)N[C@H](CCCN)C(=O)N[C@@H](Cc1c[nH]c2ccccc12)C(=O)N[C@@H]1C(=O)N[C@@H]([C@@H](C)CC)C(=O)NCC(=O)N[C@@H](CO)C(=O)O[C@@H]1C)C(c1ccccc1)c1ccccc1 (some centres undefined),–,–,–,> 32,> 32,> 32,–,–,32,16,> 32,32,> 32,> 32,32,32,–
